According to US8748666B2, “Preparation methods of methyl-D3-amine and salts thereof” (Suzhou Zelgen Biopharmaceutical Co., Ltd., priority 2010, dated 2014):

Test system: human hepatocellular carcinoma SMMC-7721
Assay: Inhibition of tumor growth of human hepatocellular carcinoma SMMC-7721 in nude mice xenograft model
Type: in vivo, Balb/c nu/nu nude mice
Protocol: 70 Balb/c nu/nu nude mice, 6 weeks old, female, were bought from Shanghai Experimental Animal Resource Center (Shanghai B&K Universal Group Limited).
SMMC-7721 cells were commercially available from Shanghai Institutes for Biological Science, CAS (Shanghai, China).
The establishment of tumor nude mice xenograft model: SMMC-7721 cells in logarithmic growth period were cultured. After cell number was counted, the cells were suspended in 1×PBS, and the concentration of the cell suspension was adjusted to 1.5×10^7/ml. The tumor cells were inoculated under the skin of right armpit of nude mice with a 1 ml syringe, 3×10^6/0.2 ml/mice. 70 nude mice were inoculated in total.
When the tumor size reached 30-130 mm^3, 58 mice were divided randomly into the different groups. The difference of the mean value of tumor volume in each group was less than 10% and drugs were started to be administrated.
Animal body weight and tumor size were tested twice a week during the experiment. Clinical symptoms were recorded every day. At the end of the administration, the tumor size was recorded by taking pictures. One mouse was sacrificed in each group and tumor tissue was taken and fixed in 4% paraformaldehyde. Observation was continued after the administration, and when the mean size of tumor was larger than 2000 mm^3, or the dying status appeared, the animals were sacrificed, gross anatomy was conducted, and the tumor tissue was taken and fixed in 4% paraformaldehyde.
The formula for calculating the tumor volume (TV) is: TV=a×b^2/2, wherein a, b independently represent the length and the breadth of the tumor. The formula for calculating the relative tumor volume (RTV) is: RTV=Vt/V0, wherein V0 is the tumor volume at the beginning of the administration, and Vt is the […] when measured. The index for evaluating the antitumor activity is relative tumor increment rate T/C (%), and the formula is: T/C (%)=(TRTV/CRTV)×100%, wherein, TRTV is the RTV of the treatment group, and CRTV is the RTV of the negative control group.
Evaluation standard for efficacy: it is effective if the relative tumor increment rate T/C (%) is ≦40% and p<0.05 by statistics analysis.

[1] = 10 mg/kg po qd x 2 weeks, at the end of administration
[2] = 30 mg/kg po qd x 2 weeks, at the end of administration
[3] = 100 mg/kg po qd x 2 weeks, at the end of administration (day 15)

Structure (SMILES) | relative tumor increment rate T/C % [1] [%] | relative tumor increment rate T/C % [2] [%] | increase of relative value of tumor inhibition compared with CM4306 (32.2%/19.6%−1=64%) (100 mg/kg po qd x 2 weeks) | relative tumor increment rate T/C % [3] [%]
[2H]C([2H])([2H])NC(=O)c1cc(Oc2ccc(NC(=O)Nc3ccc(Cl)c(C(F)(F)F)c3)cc2)ccn1 [CM4307, 4-(4-(3-(4-chloro-3-(trifluoromethyl)phenyl)ureido)-phenoxy)-N-(methyl-d3)picolinamide] | 53.6 | 40.8 | about 60% | 19.6
[2H]C([2H])([2H])NC(=O)c1cc(Oc2ccc(NC(=O)Nc3ccc(Cl)c(C(F)(F)F)c3)cc2)ccn1 [CM4306, 4-(4-(3-(4-chloro-3-(trifluoromethyl)phenyl)ureido)-phenoxy)-2-(N-methyl)picolinamide, reference compound] | 56.9 | 40.6 | – | 32.2
